Assays:
[1] = cited from earlier work
[2] = test system: normal prostate cells; assay: topical labeling of prostate cells during surgery, imaged by fibered confocal fluorescence microscopy; type: in vivo; conditions: rat during a surgical procedure
Text: The marker bar indicates 30 microns.
The imaging equipment selected for use in the present invention was a Cell-vizio (purchased from Mauna Kea Technologies), an ultra-high resolution molecular imaging system that employs fibered confocal fluorescence microscopy technology. This system was specifically designed to visualize cellular structures and quantify molecular events in vivo and is composed of an autonomous Laser Scanning Unit, a range of fibered objectives made of tens of thousands of optical fibers, and a dedicated image processing and analysis software package. The system is capable of capturing images at a rate of 12 frames per second in living anesthetized animals. These images have a lateral resolution of the order of a micron, an axial resolution of 15 to 20 μm, a field of view up to 600 μm×500 μm, and can be obtained at depths up to 80 μm. The fibered probes have diameters ranging from 300 μm to 1.8 mm, allowing for access to the narrow spaces posterior to the prostate where the cavernous nerves are located.

Substance	water solubility [1]	photostability ([1]; compared with fluorescein)	in vivo labeling of normal prostate cells (FIG. 3) [2]
Alexa Fluor 488	water solubility, with no organic co-solvents required in labeling reactions	much greater photostability than fluorescein	–
acriflavine	–	–	normal prostate cells labeled

Reference: patent US20080194970A1 (priority 2005, published 2008)
